Key:
Experiment in all cases: CellTiter-Glo cell viability assay
Type in all cases: cell-based
MOLM-13 = conditions: for IC50: Homo sapiens, MOLM-13, HEMATOPIETIC, AML, 72 hours
Protocol: (§1) Cell viability in the presence of varying concentrations of the above listed compounds at different time points was used to assess cytotoxicity and the effect of the compounds on cell proliferation.
(§2) Cell viability was measured by the CellTiter-Glo® cell viability assay from Promega (Madison, Wis.). The CellTiter-Glo® Luminescent Cell Viability Assay is a homogeneous method to determine the number of viable cells in culture based on quantitation of the ATP present, which signals the presence of metabolically active cells. Following treatment, CellTiter-Glo® is added to treatment wells and incubated at 37° C. luminescence values were measured at using a Molecular Devices Spectramax microplate reader
(§3) Cells were grown to 70% confluency, trypsinized, counted, and seeded in 96 well flat-bottom plates at a final concentration of 2.5×10^3-5×10^3 cells/well (Day 0). Cells were allowed to incubate in growth media for 24 hours. Treatment with the test agents or standard agents began on Day 1 and continued for 72 hours. At the 72-hour timepoint, treatment containing media was removed. Viable cell numbers are quantified by the CellTiter-Glo® cell viability assay as described above. Results from these studies were used to calculate an IC50 value (concentration of drug that inhibits cell growth by 50 percent of control) for each compound.
(§4) For single agent and combination studies, data from each experiment was collected and expressed as % Cell Growth using the following calculation: % Cell Growth=(ftest/fvehicle)×100
(§5) Where test is the fluorescence of the tested sample, and fvehicle is the fluorescence of the vehicle in which the drug is dissolved. Dose response graphs and IC50 values were generated using Prism 6 software (GraphPad) using the following equation: Y=(Top-Bottom)/(1+10^((logIC^50^-X)-HillSlope))

MCF7 = conditions: for IC50: Homo sapiens, MCF7, BREAST, ER + BCC, 72 hours
Protocol: as §1, §2, §3, §4, §5

KMS-34 = conditions: for IC50: KMS-34, HEMATOPIETIC, MM, 72 hours
Protocol: as §1, §2, §3, §4, §5

OAW28 = conditions: for IC50: Homo sapiens, OAW-28, OAW28, OVARIAN, ovarian cystadenocarcinoma, 72 hours
Protocol: as §1, §2, §3, §4, §5

A498 = conditions: for IC50: Homo sapiens, A498, RENAL, RCC-VHL mut, 72 hours
Protocol: as §1, §2, §3, §4, §5

H460 = conditions: for IC50: Homo sapiens, NCI-H460, H460, LUNG, NSCLC, 72 hours
Protocol: as §1, §2, §3, §4, §5

THP-1 = conditions: for IC50: Homo sapiens, THP-1, HEMATOPIETIC, AML, 72 hours
Protocol: as §1, §2, §3, §4, §5

L363 = conditions: for IC50: Homo sapiens, L-363, L363, HEMATOPIETIC, MM, 72 hours
Protocol: as §1, §2, §3, §4, §5

MV411 = conditions: for IC50: Homo sapiens, MV4-11, MV411, HEMATOPIETIC, AML, 72 hours
Protocol: as §1, §2, §3, §4, §5

HT-29 = conditions: for IC50: Homo sapiens, HT-29, COLON, CRC, 72 hours
Protocol: as §1, §2, §3, §4, §5

MDA-MB-157 = conditions: for IC50: Homo sapiens, MDA-MB-157, BREAST, Medullary Carcinoma, 72 hours
Protocol: as §1, §2, §3, §4, §5

KMM-1 = conditions: for IC50: KMM-1, HEMATOPIETIC, MM, 72 hours
Protocol: as §1, §2, §3, §4, §5

KLE = conditions: for IC50: Homo sapiens, KLE, ENDOMETRIAL, 72 hours
Protocol: as §1, §2, §3, §4, §5

Capan-2 = conditions: for IC50: Homo sapiens, Capan-2, PANCREAS, Pancreatic, 72 hours
Protocol: as §1, §2, §3, §4, §5

A375 = conditions: for IC50: Homo sapiens, A-375, A375, MELANOMA, Malignant Melanoma, 72 hours
Protocol: as §1, §2, §3, §4, §5

BT-20 = conditions: for IC50: Homo sapiens, BT-20, BREAST, Carcinoma, 72 hours
Protocol: as §1, §2, §3, §4, §5

YAPC = conditions: for IC50: Homo sapiens, YAPC, PANCREAS, Pancreatic, 72 hours
Protocol: as §1, §2, §3, §4, §5

A204 = conditions: for IC50: Homo sapiens, A204, RHABDOMYOSARCOMA, Muscle, 72 hours
Protocol: as §1, §2, §3, §4, §5

H23 = conditions: for IC50: Homo sapiens, NCI-H23, H23, LUNG, NSCLC, 72 hours
Protocol: as §1, §2, §3, §4, §5

MFE296 = conditions: for IC50: Homo sapiens, MFE-296, MFE296, ENDOMETRIAL, Endometrial, 72 hours
Protocol: as §1, §2, §3, §4, §5

J1M-1 = conditions: for IC50: J1M-1, HEMATOPIETIC, MM, 72 hours
Protocol: as §1, §2, §3, §4, §5

NCI-H1963 = conditions: for IC50: Homo sapiens, NCI-H1963, LUNG, Carcinoma, 72 hours
Protocol: as §1, §2, §3, §4, §5

Ishikawa = conditions: for IC50: Homo sapiens, Ishikawa, ENDOMETRIAL, 72 hours
Protocol: as §1, §2, §3, §4, §5

RPMI-8226 = conditions: for IC50: Homo sapiens, RPMI-8226, HEMATOPIETIC, MM, 72 hours
Protocol: as §1, §2, §3, §4, §5

CCRF-CEM = conditions: for IC50: Homo sapiens, CCRF-CEM, HEMATOPIETIC, ALL, 72 hours
Protocol: as §1, §2, §3, §4, §5

CC[C@@H](C(=O)Nc1ncc(C(=O)NO)s1)c1ccc(OC)cc1 [#1b, (R)—N-hydroxy-2-(2-(4-methoxyphenyl)butanamido)thiazole-5-carboxamide]
IC50 (MOLM-13): 0.209 µM
IC50 (MCF7): 0.158 µM
IC50 (KMS-34): 0.067 µM
IC50 (OAW28): 0.562 µM
IC50 (A498): 0.352 µM
IC50 (H460): 0.363 µM
IC50 (THP-1): 0.196 µM
IC50 (L363): 0.17 µM
IC50 (MV411): 0.023 µM
IC50 (HT-29): 0.41 µM
IC50 (MDA-MB-157): 0.558 µM
IC50 (KMM-1): 0.105 µM
IC50 (KLE): 0.851 µM
IC50 (Capan-2): 0.97 µM
IC50 (A375): 0.651 µM
IC50 (BT-20): 0.759 µM
IC50 (YAPC): 1.96 µM
IC50 (A204): 0.17 µM
IC50 (H23): 0.424 µM
IC50 (MFE296): 0.204 µM
IC50 (J1M-1): 0.219 µM
IC50 (NCI-H1963): 0.407 µM
IC50 (Ishikawa): 0.191 µM
IC50 (RPMI-8226): 0.129 µM
IC50 (CCRF-CEM): 0.113 µM

CC[C@H](C(=O)Nc1ncc(C(=O)NO)s1)c1ccc(OC)cc1 [#1a, (S)—N-hydroxy-2-(2-(4-methoxyphenyl)butanamido)thiazole-5-carboxamide]
IC50 (MOLM-13): 0.028 µM
#1/#1a (MOLM-13; ratio of IC50, MOLM-13): 2.21
#1b/#1a (MOLM-13; ratio of IC50, MOLM-13): 7.46
IC50 (MCF7): 0.021 µM
#1/#1a (MCF7; ratio of IC50, MCF7): 1.86
#1b/#1a (MCF7; ratio of IC50, MCF7): 7.52
IC50 (KMS-34): 0.013 µM
#1/#1a (KMS-34; ratio of IC50, KMS-34): 1.15
#1b/#1a (KMS-34; ratio of IC50, KMS-34): 5.15
IC50 (OAW28): 0.085 µM
#1/#1a (OAW28; ratio of IC50, OAW28): 3.39
#1b/#1a (OAW28; ratio of IC50, OAW28): 6.61
IC50 (A498): 0.047 µM
#1/#1a (A498; ratio of IC50, A498): 1.34
#1b/#1a (A498; ratio of IC50, A498): 7.49
IC50 (H460): 0.05 µM
#1/#1a (H460; ratio of IC50, H460): 1.58
#1b/#1a (H460; ratio of IC50, H460): 7.26
IC50 (THP-1): 0.032 µM
#1/#1a (THP-1; ratio of IC50, THP-1): 2.03
#1b/#1a (THP-1; ratio of IC50, THP-1): 6.13
IC50 (L363): 0.021 µM
#1/#1a (L363; ratio of IC50, L363): 2.1
#1b/#1a (L363; ratio of IC50, L363): 8.1
IC50 (MV411): 0.006 µM
#1/#1a (MV411; ratio of IC50, MV411): 1.17
#1b/#1a (MV411; ratio of IC50, MV411): 3.83
IC50 (HT-29): 0.043 µM
#1/#1a (HT-29; ratio of IC50, HT-29): 3.16
#1b/#1a (HT-29; ratio of IC50, HT-29): 9.53
IC50 (MDA-MB-157): 0.089 µM
#1/#1a (MDA-MB-157; ratio of IC50, MDA-MB-157): 1.9
#1b/#1a (MDA-MB-157; ratio of IC50, MDA-MB-157): 6.27
IC50 (KMM-1): 0.019 µM
#1/#1a (KMM-1; ratio of IC50, KMM-1): 1.05
#1b/#1a (KMM-1; ratio of IC50, KMM-1): 5.53
IC50 (KLE): 0.106 µM
#1/#1a (KLE; ratio of IC50, KLE): 2.03
#1b/#1a (KLE; ratio of IC50, KLE): 8.03
IC50 (Capan-2): 0.136 µM
#1/#1a (Capan-2; ratio of IC50, Capan-2): 2.67
#1b/#1a (Capan-2; ratio of IC50, Capan-2): 7.13
IC50 (A375): 0.032 µM
#1/#1a (A375; ratio of IC50, A375): 8.41
#1b/#1a (A375; ratio of IC50, A375): 20.34
IC50 (BT-20): 0.093 µM
#1/#1a (BT-20; ratio of IC50, BT-20): 2.54
#1b/#1a (BT-20; ratio of IC50, BT-20): 8.16
IC50 (YAPC): 0.215 µM
#1/#1a (YAPC; ratio of IC50, YAPC): 2.03
#1b/#1a (YAPC; ratio of IC50, YAPC): 9.13
IC50 (A204): 0.054 µM
#1/#1a (A204; ratio of IC50, A204): 0.61
#1b/#1a (A204; ratio of IC50, A204): 3.15
IC50 (H23): 0.047 µM
#1/#1a (H23; ratio of IC50, H23): 1.62
#1b/#1a (H23; ratio of IC50, H23): 9.02
IC50 (MFE296): 0.035 µM
#1/#1a (MFE296; ratio of IC50, MFE296): 1.49
#1b/#1a (MFE296; ratio of IC50, MFE296): 5.83
IC50 (J1M-1): 0.026 µM
#1/#1a (J1M-1; ratio of IC50, J1M-1): 1.81
#1b/#1a (J1M-1; ratio of IC50, J1M-1): 8.42
IC50 (NCI-H1963): 0.026 µM
#1/#1a (NCI-H1963; ratio of IC50, NCI-H1963): 7.54
#1b/#1a (NCI-H1963; ratio of IC50, NCI-H1963): 15.65
IC50 (Ishikawa): 0.028 µM
#1/#1a (Ishikawa; ratio of IC50, Ishikawa): 1.71
#1b/#1a (Ishikawa; ratio of IC50, Ishikawa): 6.82
IC50 (RPMI-8226): 0.014 µM
#1/#1a (RPMI-8226; ratio of IC50, RPMI-8226): 2.21
#1b/#1a (RPMI-8226; ratio of IC50, RPMI-8226): 9.21
IC50 (CCRF-CEM): 0.014 µM
#1/#1a (CCRF-CEM; ratio of IC50, CCRF-CEM): 2
#1b/#1a (CCRF-CEM; ratio of IC50, CCRF-CEM): 8.07

CCC(C(=O)Nc1ncc(C(=O)NO)s1)c1ccc(OC)cc1 (racemic) [#1, N-hydroxy-2-(2-(4-methoxyphenyl)butanamido)thiazole-5-carboxamide]
IC50 (MOLM-13): 0.062 µM
IC50 (MCF7): 0.039 µM
IC50 (KMS-34): 0.015 µM
IC50 (OAW28): 0.288 µM
IC50 (A498): 0.063 µM
IC50 (H460): 0.079 µM
IC50 (THP-1): 0.065 µM
IC50 (L363): 0.044 µM
IC50 (MV411): 0.007 µM
IC50 (HT-29): 0.136 µM
IC50 (MDA-MB-157): 0.169 µM
IC50 (KMM-1): 0.02 µM
IC50 (KLE): 0.215 µM
IC50 (Capan-2): 0.363 µM
IC50 (A375): 0.269 µM
IC50 (BT-20): 0.236 µM
IC50 (YAPC): 0.437 µM
IC50 (A204): 0.033 µM
IC50 (H23): 0.076 µM
IC50 (MFE296): 0.052 µM
IC50 (J1M-1): 0.047 µM
IC50 (NCI-H1963): 0.196 µM
IC50 (Ishikawa): 0.048 µM
IC50 (RPMI-8226): 0.031 µM
IC50 (CCRF-CEM): 0.028 µM

— US11420947B2, “(S)-n-hydroxy-2-(2-(4-methoxyphenyl)butanamido)thiazole-5-carboxamide and pharmaceutically acceptable salts thereof” (TRANSLATIONAL DRUG DEVELOPMENT, LLC, priority 2018, dated 2022)
